“Also recorded” adds a separate entry of the source.
Tests used:
ACE-2 = format: in vivo, rat
Description: Groups 1 and 2 were not subjected to an exercise routine. Groups 3-8 were subjected to an exercise regimen consisting of a week training period with an incremental exercise capacity described below. After the week training period the exercise regimen followed was each rat in Groups 3-8 were subjected to 6 weeks of running at 25 m/min during 45 min every day. […] These correspond to 0, 250, 500, 1000, 2000 and 4000 mg per day for humans, respectively.
After the 6-week exercise regimen was completed, muscle, lung, plasma and liver tissue samples were taken from these rats. The ACE-2 analysis of the tissue samples are subjected to the following test.
To determine the protein accumulation in the liver, muscle and lung samples, a Western Blotting test was used. Each of the tissue samples of the same group were pooled, homogenized, and sonicated in lysis buffer supplemented with 1X protease and phosphatase inhibitor cocktail (#5872, Cell Signaling). Total protein content was detected with Qubit 2.0 Fluorometer according to the manufacturer’s protocol (Invitrogen, Life Technologies Corporation, Carlsbad, CA, USA). Equal amounts of protein (20 µg) were size-fractionated using any-kD Mini-Protean TGX gel electrophoresis and then transferred to a nitrocellulose membrane using the Trans-Blot Turbo Transfer System (Bio-Rad, Life Sciences Research). Thereafter, membranes were blocked in 5% nonfat milk in Tris-buffered saline (TBS) containing 0.1% Tween (TBS-T; blocking solution) for 1 h at room temperature, washed in TBS-T, and incubated overnight with ACE-2 (Abcam, Cambridge, UK). The following day, membranes were washed with TBS-T and then incubated with horseradish peroxidase-conjugated goat anti-rabbit (Abcam, Cambridge, UK) or goat anti-mouse (Abcam, Cambridge, UK) secondary antibody (diluted 1:1000) for 1 h. Individual blots were performed at least three times. Protein loading was controlled by stripping and re-probing the nitrocellulose membrane with an anti-β-actin antibody (Abcam, Cambridge, UK). Protein levels were analyzed densitometrically using an image analysis system (Image J; National Institute of Health, Bethesda, MD, USA), corrected with values determined on β-actin blots and expressed as relative values compared with the control group.
To determine the mRNA expression levels of ACE-2 in the liver, lung and muscle samples a total RNA extraction and specific mRNA quantification was conducted by reverse transcription-polymerase chain reaction (RT-qPCR). Gene expressions were done by quantitative polymerase chain reaction (qPCR). […]

TMPRSS2 [1] = assay: TMPRSS2 protein and mRNA in rat tissue samples; format: in vivo; details: exercised rats
Text: After a week of the adaptation period, the rats were divided into eight equal groups containing seven rats each. The initial body weights of the rats were similar in all the groups (214.53 grams ± 4.67; P > 0.05).
Groups 1 and 2 were not subjected to an exercise routine. Groups 3-8 were subjected to an exercise regimen consisting of a week training period with an incremental exercise capacity described below. After the week training period the exercise regimen followed was each rat in Groups 3-8 were subjected to 6 weeks of running at 25 m/min during 45 min […]. […] These correspond to 0, 250, 500, 1000, 2000 and 4000 mg per day for humans, respectively.
To determine the protein accumulation in the liver, muscle and lung samples, a Western Blotting test was used. Each of the tissue samples of the same group were pooled, homogenized, and sonicated in lysis buffer supplemented with 1X protease and phosphatase inhibitor cocktail (#5872, Cell Signaling). Total protein content was detected with Qubit 2.0 Fluorometer according to the manufacturer’s protocol (Invitrogen, Life Technologies Corporation, Carlsbad, CA, USA). […] Protein levels were analyzed densitometrically using an image analysis system (Image J; National Institute of Health, Bethesda, MD, USA), corrected with values determined on β-actin blots and expressed as relative values compared with the control group. […]

ACE-1 [2] = assay: Rat plasma serum ELISA, ACE-1; format: in vivo; details: exercised rats, FIG. 5A
ACE-1 [3] = assay: Human study, serum ELISA, ACE-1; format: in vivo; details: 2 g daily L-carnitine tartrate, 5 weeks, before or after exercise challenge
Description: (§1) A human study was run with a total of 80 healthy male and female subjects ranging from 21 to 65 years of age, who were active (i.e. 30 minutes per day of moderate activity, 3 days per week) are randomized into two groups. […] Seventy-three subjects completed the trial and biomarker data were analyzed from the sera of the 73 completers. Sera were collected for analysis of C-Reactive Protein (CRP), ACE 1, ACE 2, TMPRSS 2, the Tumor Necrosis Factor alpha (TNF-alpha), and Furin at baseline in the beginning of the trial, at week 5 and 48 hr after an exercise challenge as described (Clinicaltrials.gov NCT04420377). The exercise challenge serves as surrogate to the inflammation stimulus.
(§2) To obtain human sera, venous blood was extracted by venipuncture of the antecubital vein using a 21-gauge syringe and collected into a 10 mL EDTA vacutainer tube (BD Vacutainer®, Becton, Dickinson and Company, Franklin Lakes, NJ) by a certified phlebotomist. […] Human ACE-1, ACE-2, TMPRSS2, Furin, CRP and TNF-alpha protein levels were assessed using commercially available ELISA kits, according the manufacturer recommendations, ACE-1 (R&D systems Inc., Minneapolis, MN, USA), ACE-2 (RayBiotech inc., Peachtree Corners, GA), TMPRSS2 (Novus Biologicals, Littleton, CO), CRP (R&D Systems Inc., Minneapolis, MN), TNF-alpha (Novus Biologicals, Littleton, CO), and Furin (Sigma Aldrich, St. Louis, MO). […]

TMPRSS2 [4] = assay: Human study, serum ELISA, TMPRSS2; format: in vivo; details: 2 g daily, 5 weeks, 48 hours after exercise challenge, versus placebo
Description: as §1, §2

TNF-alpha = assay: Human study, serum ELISA, TNF-alpha; format: in vivo
Description: as §1, §2

C[N+](C)(C)C[C@H](O)CC(=O)[O-] [L-carnitine]
dose of maximum effect on ACE-2, TMPRSS2 and Furin levels (ACE-2; exercised rats, oral, 6 weeks): 200 mg/kg | ACE-2 mRNA levels (ACE-2; exercised rats, tissues, versus exercise control): dose-dependent decrease | ACE-2 protein level (ACE-2; exercised rats, western blotting): return to the baseline control | ACE-2 levels (ACE-2; rats without exercise (inflammation), 200 mg/kg): does not affect these receptors | TMPRSS2 mRNA levels (TMPRSS2 [1]; tissues, versus exercise control): dose-dependent decrease | TMPRSS2 protein level (TMPRSS2 [1]; western blotting): return to the baseline control | serum ACE-1 (ACE-1 [2]): near normal levels | ACE-1 serum levels (ACE-1 [3]): no significant effect; also recorded: no significant interaction or main effect | TMPRSS2 serum levels (TMPRSS2 [4]): significant decrease | TNF-alpha levels (TNF-alpha; human serum, any time point, b137): No change occurred | TNF-α (TNF-alpha; human, group A, Wk5 compared to BL, p<0.01): lower
